According to US4051237A, “Glycopeptide antibiotics Bu-2231 A and B and process for producing same” (priority 1975, dated 1977):
Converted amounts (≈) assume the structure as drawn.

Experiments:
E. coli NIHJ [1] = experiment: MIC by two-fold agar dilution; format: cell-based; details: Mueller-Hinton agar, unit assumed
K. pneumoniae D11 = experiment: MIC by two-fold agar dilution; format: cell-based; details: Mueller-Hinton agar, unit assumed
K. pneumoniae A9678 = experiment: MIC by two-fold agar dilution; format: cell-based; details: Mueller-Hinton agar, unit assumed
K. pneumoniae A20328 = experiment: MIC by two-fold agar dilution; format: cell-based; details: Mueller-Hinton agar, unit assumed
P. mirabilis A9554 = experiment: MIC by two-fold agar dilution; format: cell-based; details: Mueller-Hinton agar, unit assumed
P. stuartii A20894 = experiment: MIC by two-fold agar dilution; format: cell-based; details: Mueller-Hinton agar, unit assumed
S. marcescens A20333 = experiment: MIC by two-fold agar dilution; format: cell-based; details: Mueller-Hinton agar, unit assumed
S. marcescens A21235 = experiment: MIC by two-fold agar dilution; format: cell-based; details: Mueller-Hinton agar, unit assumed
P. aeruginosa A9930 = experiment: MIC by two-fold agar dilution; format: cell-based; details: Mueller-Hinton agar, unit assumed
P. aeruginosa H9, D113 = experiment: MIC by two-fold agar dilution; format: cell-based; details: Mueller-Hinton agar, unit assumed
P. aeruginosa A20741 = experiment: MIC by two-fold agar dilution; format: cell-based; details: Mueller-Hinton agar, unit assumed
S. aureus Smith A9537 = experiment: MIC by two-fold agar dilution; format: cell-based; details: Mueller-Hinton agar, unit assumed
S. aureus #193 = experiment: MIC by two-fold agar dilution; format: cell-based; details: Mueller-Hinton agar, unit assumed
S. aureus 209P, R4 = experiment: MIC by two-fold agar dilution; format: cell-based; details: Mueller-Hinton agar, unit assumed
Protocol: The minimum inhibitory concentrations (MIC) of Bu-2231 A and B were determined against a wide variety of bacteria and fungi by the two-fold agar dilution method. Mueller-Hinton agar medium was used for the determination of bacterial MIC's (gram-positive and gram-negative), Medium #1001 [Glycerol (3%). Na-glutamate (0.3%), peptone (0.2%), Na2 HPO4 (0.31%), KH2 PO4 (0.1%), ammonium citrate (0.005%), MgSO4.7H2 O (0.001%), agar (1.5%)] for acid-fast bacteria and sabouraud agar for fungi. The results are shown in Tables 9 and 10 comparatively with bleomycin and phleomycin. The antibacterial and antifungal activities of Bu-2231 A and B are much higher than those of the reference antibiotics.

S. aureus A20239 = experiment: MIC by two-fold agar dilution; format: cell-based; details: Mueller-Hinton agar, unit assumed
S. aureus BX-1633,A9606 = experiment: MIC by two-fold agar dilution; format: cell-based; details: Mueller-Hinton agar, unit assumed
M. flavus D12 = experiment: MIC by two-fold agar dilution; format: cell-based; details: Mueller-Hinton agar, unit assumed
B. mycoides "0" = format: cell-based; details: Mueller-Hinton agar, unit assumed
B. sphaericus #122 = experiment: MIC by two-fold agar dilution; format: cell-based; details: Mueller-Hinton agar, unit assumed
B. cereus ATCC 10702A = experiment: MIC by two-fold agar dilution; format: cell-based; details: Mueller-Hinton agar, unit assumed
B. subtilis PCI-219 = experiment: MIC by two-fold agar dilution; format: cell-based; details: Mueller-Hinton agar, unit assumed
Mycobacterium 607, D87 = experiment: MIC by two-fold agar dilution; format: cell-based; details: Medium #1001, unit assumed
Mycobacterium 607, D46 = experiment: MIC by two-fold agar dilution; format: cell-based; details: Medium #1001, unit assumed
Mycobacterium phlei, D88 = experiment: MIC by two-fold agar dilution; format: cell-based; details: Medium #1001, unit assumed
[2] = test system: Mycobacterium ranae, ATCC110; experiment: MIC by two-fold agar dilution; format: cell-based; details: Medium #1001, unit assumed
C. albicans IAM 4888 = experiment: MIC by two-fold agar dilution; format: cell-based; details: Ca-1 C. albicans IAM 4888; sabouraud agar; unit assumed
C. albicans Nystatin-R = experiment: MIC by two-fold agar dilution; format: cell-based; details: Ca-2 C. albicans Nystatin-R; sabouraud agar; unit assumed
[3] = test system: C. albicans #520 Yale A9540; experiment: MIC by two-fold agar dilution; format: cell-based; details: Ca-4 C. albicans #520 Yale A9540; sabouraud agar; unit assumed
C. krusei IAM 4489 = experiment: MIC by two-fold agar dilution; format: cell-based; details: Ck-1 C. krusei IAM 4489; sabouraud agar; unit assumed
C. tropicalis IAM 4157 = experiment: MIC by two-fold agar dilution; format: cell-based; details: Ct-1 C. tropicalis IAM 4157; sabouraud agar; unit assumed
Hormodendrum sp. = experiment: MIC by two-fold agar dilution; format: cell-based; details: Hy-1 Hormodendrum sp.; sabouraud agar; unit assumed
Mucor sp. = experiment: MIC by two-fold agar dilution; format: cell-based; details: My-1 Mucor sp.; sabouraud agar; unit assumed
[4] = test system: F. moniliforme NRRL A2284; experiment: MIC by two-fold agar dilution; format: cell-based; details: Fm-1 F. moniliforme NRRL A2284; sabouraud agar; unit assumed
C. lunata ATCC 13432 = experiment: MIC by two-fold agar dilution; format: cell-based; details: Cl-1 C. lunata ATCC 13432; sabouraud agar; unit assumed
P. citrinum IAM 7008 = experiment: MIC by two-fold agar dilution; format: cell-based; details: Pt-1 P. citrinum IAM 7008; sabouraud agar; unit assumed
T. mentagrophytes D-155 = experiment: MIC by two-fold agar dilution; format: cell-based; details: Tm-1 T. mentagrophytes D-155; sabouraud agar; unit assumed
T. rubrum D-55 = experiment: MIC by two-fold agar dilution; format: cell-based; details: Tr-1 T. rubrum D-55; sabouraud agar; unit assumed
M. canis D-51 = experiment: MIC by two-fold agar dilution; format: cell-based; details: Mc-1 M. canis D-51; sabouraud agar; unit assumed
E. coli NIHJ [5] = experiment: In vivo activity in experimental mice infection; details: Table 12
Protocol: The in vivo activity of Bu-2231 complex was evaluated in experimental mice infections against S. aureus Smith and E. coli NIHJ. Bleomycin was tested comparatively as a reference antibiotic.
The in vivo activty of the individual components of Bu-2231 in each of the copper-free and copper complex forms was also determined in E. coli infection.

Q: Which results are given for Cc1c(N)nc([C@H](CC(N)=O)NC[C@H](N)C(N)=O)nc1C(=O)N[C@H](C(=O)N[C@H](C)[C@@H](O)CC(=O)N[C@H](C(=O)NC(O[C@@H]1O[C@@H](C)[C@@H](N)[C@@H](O)[C@H]1O)C(O)c1nc(-c2nc(C(=O)NCCCC(N)CC(=O)NCCCNCCCCN)cs2)cs1)[C@@H](C)O)[C@H](O[C@@H]1O[C@@H](CO)[C@@H](O)[C@H](O)[C@@H]1O[C@H]1O[C@H](CO)[C@@H](O)[C@H](OC(N)=O)[C@@H]1O)c1c[nH]cn1 (some centres unmarked) [Bu-2231 A Cu-free]?
A: MIC (E. coli NIHJ [1]): 0.025 µg/mL (≈ 0.0144 µM); MIC (K. pneumoniae D11): < 0.0063 µg/mL; MIC (K. pneumoniae A9678): 0.2 µg/mL (≈ 0.115 µM); MIC (K. pneumoniae A20328): 0.8 µg/mL (≈ 0.462 µM); MIC (P. mirabilis A9554): 0.1 µg/mL (≈ 0.0577 µM); MIC (P. stuartii A20894): 0.4 µg/mL (≈ 0.231 µM); MIC (S. marcescens A20333): 0.2 µg/mL (≈ 0.115 µM); MIC (S. marcescens A21235): 0.2 µg/mL (≈ 0.115 µM); MIC (P. aeruginosa A9930): 0.4 µg/mL (≈ 0.231 µM); MIC (P. aeruginosa H9, D113): > 100 µg/mL; MIC (P. aeruginosa A20741): 0.2 µg/mL (≈ 0.115 µM); MIC (S. aureus Smith A9537): 0.1 µg/mL (≈ 0.0577 µM); MIC (S. aureus #193): 0.1 µg/mL (≈ 0.0577 µM); MIC (S. aureus 209P, R4): 0.4 µg/mL (≈ 0.231 µM); MIC (S. aureus A20239): 0.2 µg/mL (≈ 0.115 µM); MIC (S. aureus BX-1633,A9606): 0.2 µg/mL (≈ 0.115 µM); MIC (M. flavus D12): 0.2 µg/mL (≈ 0.115 µM); MIC (B. mycoides "0"): 0.2 µg/mL (≈ 0.115 µM); MIC (B. sphaericus #122): < 0.0063 µg/mL; MIC (B. cereus ATCC 10702A): 0.2 µg/mL (≈ 0.115 µM); MIC (B. subtilis PCI-219): < 0.0063 µg/mL; MIC (Mycobacterium 607, D87): 0.2 µg/mL (≈ 0.115 µM); MIC (Mycobacterium 607, D46): 0.1 µg/mL (≈ 0.0577 µM); MIC (Mycobacterium phlei, D88): 0.05 µg/mL (≈ 0.0289 µM); MIC [2]: 0.1 µg/mL (≈ 0.0577 µM); MIC (C. albicans IAM 4888): 0.8 µg/mL (≈ 0.462 µM); MIC (C. albicans Nystatin-R): 0.8 µg/mL (≈ 0.462 µM); MIC [3]: 3.1 µg/mL (≈ 1.79 µM); MIC (C. krusei IAM 4489): 0.8 µg/mL (≈ 0.462 µM); MIC (C. tropicalis IAM 4157): 0.8 µg/mL (≈ 0.462 µM); MIC (Hormodendrum sp.): 0.8 µg/mL (≈ 0.462 µM); MIC (Mucor sp.): 6.3 µg/mL (≈ 3.64 µM); MIC [4]: 0.8 µg/mL (≈ 0.462 µM); MIC (C. lunata ATCC 13432): 0.8 µg/mL (≈ 0.462 µM); MIC (P. citrinum IAM 7008): 1.6 µg/mL (≈ 0.924 µM); MIC (T. mentagrophytes D-155): 12.5 µg/mL (≈ 7.22 µM); MIC (T. rubrum D-55): 3.1 µg/mL (≈ 1.79 µM); MIC (M. canis D-51): 3.1 µg/mL (≈ 1.79 µM); PD50 (E. coli NIHJ [5]; E. coli NIHJ infection, mice, sc): 0.024 mg/kg; In vivo activity vs. E. coli NIHJ infection (x/5 mice) (E. coli NIHJ [5]; dose (sc) 0.008): 1/5; In vivo activity vs. E. coli NIHJ infection (x/5 mice) (E. coli NIHJ [5]; dose (sc) 0.03): 3/5; In vivo activity vs. E. coli NIHJ infection (x/5 mice) (E. coli NIHJ [5]; dose (sc) 0.13): 5/5; In vivo activity vs. E. coli NIHJ infection (x/5 mice) (E. coli NIHJ [5]; dose (sc) 0.5): 5/5; In vivo activity vs. E. coli NIHJ infection (x/5 mice) (E. coli NIHJ [5]; dose (sc) 2): 5/5
